Data taken from US7163923B2, “Peptide deformylase activated prodrugs” (Celmed Oncology (USA), Inc., priority 2001, dated 2007).
Like-named read-outs stand apart in the source and are kept apart here.

System: E. coli
Test: MIC susceptibility testing (modified NCCLS, 384-well)
Assay type: cell-based
Experimental: The NCCLS (National Committee for Clinical Laboratory Standards), method to determine MIC's of antimicrobial compounds is modified for high-throughput screening. All stocks of tested compounds are prepared in either water or in DMSO depending on solubility. At the highest concentration, DMSO content should not exceed 0.5%. Briefly, twenty 2-fold serial dilutions of test compounds from the highest concentration are made in a 384-well microtiter plate. Each well is inoculated with testing bacteria in broth to a final concentration of approximately 1–1.5×10^6 cells/ml. Bacterial growth is determined by the increase of optical density at 600 nm using a microplate reader (Tecan SpectraFluor Plus). The MIC is defined as the lowest concentration at which bacterial growth (equivalent to visible growth) was inhibited after 16 to 18 hours of incubation at the appropriate temperature required for the bacteria growth.
E. coli/TEM—E. coli expressing TEM-1 beta-lactamase; MRSA—Methicillin Resistant S. Aureus; MSSA—Methicillin Sensitive S. Aureus

Measured: MIC

CSCCC(NC=O)C(=O)NC(CC(C)C)C(=O)Oc1cc(Cl)ccc1Oc1ccc(Cl)cc1Cl (stereo not shown) [NB2046, 2-(2-formylamino-4-methylsulfanyl-butyrylamino)-4-methyl-pentanoic acid 5-chloro-2-(2,4-dichloro-phenoxy)-phenyl ester]
16 µg/mL: E. coli, Exp. #2, Table 4 | E. coli/Tem-1 (expressing TEM-1 beta-lactamase), Exp. #1, Table 4 | E. coli/Tem-1 (expressing TEM-1 beta-lactamase), Exp. #2, Table 4 | Escherichia coli, E. coli, Exp. #1, Table 4, read-out: MIC
